Test results published in patent US9096538B2, “Pharmaceutical comprising PPAR agonist” (Senju Pharmaceutical Co., Ltd., priority 2005, dated 2015).

System: rabbit corneal epithelial cell
Assay: Test Example 1: increase in cell number, cultured rabbit corneal epithelial cell (Cell Counting Kit-8)
Assay type: cell-based
Settings: 48 hours, no addition group = 100%, average ± standard deviation, N = 5
Experimental: A male rabbit (Japanese white, […] LABES Co., Ltd.) was used. The experimental animal was used according to the International Guiding Principles for Biomedical Research Involving Animals.
A corneal epithelial cell was prepared from rabbit eyeballs. A cornea was excised from isolated eyeballs, and stored in Dulbecco's phosphate buffered saline (D-PBS; Invitrogen), and this was transferred to a clean bench. The following cell preparation procedures were all performed sterilely.
The isolated corneal segment was washed with D-PBS with 1% penicillin-streptomycin (Invitrogen) added thereto three times, and was transferred to a minimum essential medium (MEM; Invitrogen). A corneal endothelial cell and a Descemet's membrane of the corneal segment immersed in MEM were peeled with a knife (Alcon) for ocular operation, and the corneal segment (corneal stroma and corneal epithelium) after peeling was transferred to MEM to which dispase II (Roche Diagnostics) had been added to 2.4 U/mL. This was incubated at 37° C. for 1 hour and, thereafter, the dispase II-treated corneal segment was transferred to MEM. The corneal epithelium of the corneal segment immersed in MEM was peeled with the knife for ocular operation, and the corneal segment residue (corneal stroma) was removed from MEM. The peeled corneal epithelial cell and the MEM containing same were recovered in a 50 mL centrifuge tube, subjected to centrifugation at 1,500 rpm for 5 minutes at room temperature. The supernatant was discarded to give a corneal epithelial cell layer. To the corneal epithelial cell layer was added 1 mL of trypsin-EDTA (Invitrogen) and, after thorough mixing, the cells were incubated at 37° C. for 5 minutes to dissociate adhesion between the cells. To this was added 9 mL of MEM containing 10% fetal bovine serum (FBS; Invitrogen) to stop the enzymatic reaction, and this was subjected again to centrifugation at room temperature and 1,500 rpm for 5 minutes to obtain the corneal epithelial cell layer. To the resulting corneal epithelial cell layer was added […] of a serum-free liquid medium for proliferating a normal rabbit corneal epithelial cell (RCGM2; Kurabo Industries LTD.) to suspend the cell, and this was seeded into a culture dish (IWAKI) for culturing a cell having a diameter of 10 cm, to which 9 mL of RCGM2 had been added. […] The culture medium was exchanged with a fresh culture medium every 48 hours until the test day.
As the test substance, the following compounds were used. • PPARα agonist: WY-14643 (Calbiochem) and fenofibrate (Sigma-Aldrich) • PPARδ agonist: L-165041 (Sigma-Aldrich)
For studying the effect of promoting cell proliferation by each test substance, a culture medium prepared by removing a mouse-derived epithelial growth factor (mEGF) attached to RCGM2, from RCGM2, was used as a basal medium, while as a positive control for confirming the effect of promoting cell proliferation, a medium with an mEGF added thereto (basal medium+10 ng/mL mEGF) was used according to instructions of an RCGM2 preparation protocol.
As a culture dish for a test of cell proliferation promotion, a 96-well culture dish for tissue culture (Corning) was used. On the day before the test, each 50 μL of 0.01% type I collagen (Nitta Gelatin Inc.) was dispensed into each well of the culture dish, and coating was performed at 4° C. until immediately before the test. On the test day, after a type I collagen solution was removed, the bottom of the culture dish was washed three times using D-PBS, and this was used in the test as a collagen-treated culture dish.
In the test, a rabbit corneal epithelial cell which had been cultured to subconfluent in a culture dish having a diameter of 10 cm was used. After the culture medium was removed, the bottom of the culture dish was washed two times using D-PBS, to this was added 1 mL of trypsin-EDTA, this was incubated at 37° C. for 5 minutes and thereby, the cell was peeled from the bottom of the culture dish. […]

For `CCCc1c(OCCCOc2ccc(OCC(=O)O)cc2)ccc(C(C)=O)c1O` [L-165041, (4-(3-(4-acetyl-3-hydroxy-2-propyl)phenoxy)propoxyphenoxy)acetic acid], the “Cell proliferation (%)” value (10^−6 M) was 182.2 ± 13.0% and the “Cell proliferation (%)” value (10^−7 M) was 163.3 ± 8.2%.
